The values below come from patent publication US20200069609A1 (WIGEN BIOMEDICINE TECHNOLOGY (SHANGHAI) CO., LTD., priority 2017, published 2020).

The target of assay [1] is T1, GST-LC3B (Homo sapiens, UniProt Q9GZQ8).
T1 construct: This fusion protein was used directly in the fluorescence polarization assay; made in house
Briefly: Fluorescence polarization (FP) assay, GST-LC3B with FITC-labeled peptide. As to conditions: GST-LC3B 180 nM, FITC-labeled peptide 18 nM. It counts as binding. The procedure: (§1) GST-LC3B (1-125) (SEQ ID NO: 2) and each mutant protein were expressed by IPTG induction in DE3 competent cells at 16° C. After collecting and resuspending DE3 competent cells, the cells were sonicated and centrifuged. The resulted supernatant was hanged on the column (GSTrap FF, GE), followed by eluting with glutathione-containing eluant, and then the target protein was produced by gel filtration chromatography. This fusion protein was used directly in the fluorescence polarization assay. The proteins used in the protein thermal shift assay, mass spectrometry, and protein crystallization experiments were produced by PP enzyme or thrombin digestion and the following gel filtration chromatography to the GST-fusion protein obtained by the above method.
Recombinant protein GST-LC3B (final concentration 180 nM) (SEQ ID NO: 2) and N-terminal FITC-labeled peptide (SEQ ID NO: 5, final concentration 18 nM) were placed in FP buffer solution (50 mM HEPES pH 7.5, 0.1 mg/ml BSA and 1 mM DTT), into which the compound gradually diluted by the FP buffer was added, then the resulted mixture was incubated in dark at 25° C. Fluorescence polarization values were monitored (PerkinElmer Envision, the wavelength of the […]) and the IC50 values were calculated by the GraphPad Prism 6.0 program.
Representation of the IC50 value of the compounds: “[…]<IC50≤1 mM” is considered as having low activity (+) against LC3B. “15 μM<<IC50≤100 μM” of the compound is considered as having moderate activity (++) against LC3B. “3 μM<IC50≤15 μM” is considered as having high activity (+++) against LC3B. “IC50≤3 μM” is considered as having higher activity (++++) against LC3B.
In general terms: In fluorescence polarisation assays a small probe gives low polarisation when free and higher when bound to something large.

For assay [2], the target named is T2, LC3B K49A mutant (Homo sapiens, UniProt Q9GZQ8, K49A).
T2 construct: GST (N, cleaved yes); made in house
Briefly: Protein thermal shift assay on K49A mutant. In kind it is binding. The procedure: (§2) The protein thermal shift assay is used to test the effect of compounds on the thermodynamic stability of proteins via the Quant Studio 6 Flex Real-Time PCR system. Protein LC3B (1-125) (SEQ ID NO: 3) and each mutant protein (SEQ ID NO: 7-15) (final concentration 4 μM), environmentally sensitive dye (5×SYPRO orange, Invitrogen) and compound (final concentration 40 μM) were mixed in the buffer solution (50 mM HEPES pH 7.5, 1 mM DTT) to a total volume of 20 μL. The sample was heated from 25° C. to 95° C. with a heating rate of 3%. Changes in fluorescence intensity were monitored and each melting temperature (Tm), represented by AT in the unit of ° C., was calculated by Protein Thermal Shift Software 1.1 (ABI).
(§3) LC3B totally has 9 lysines, and for investigating the site selectivity of Compound A, all the 9 lysines were mutated to alanine (K8A, K30A, K39A, K42A, K49A, K51A, K65A, K103A, K122A; SEQ ID NO:7-15).

The target of assay [3] is T3, LC3B (1-125) (Homo sapiens, UniProt Q9GZQ8).
T3 construct: GST (N, cleaved yes); made in house
Briefly: Protein thermal shift assay. It counts as binding. As to conditions: protein 4 μM, compound 40 μM. As for the experimental part:
as §1, §2

Assay [4] deals with T4, LC3B (2-119) (Homo sapiens, UniProt Q9GZQ8).
T4 construct: GST (N, cleaved yes); made in house
Kind of assay: Crystal complex structure of LC3B protein and small molecule. The following applies: crystal soaked with compound 1-5 mM. As for the experimental part:
A vacant protein crystal of LC3B (2-119) (SEQ ID NO: 4) was obtained by the sit-drop method, and then the crystal was taken out and soaked in a bath containing Compound A with a final concentration of 1-5 mM. The diffraction data were collected at the 19U1 line station of Shanghai Synchrotron Radiation Facility. And the diffraction data were integrated by XDS software and then compressed by Aimless module in CCP4. The LC3B protein structure with a PDB number of 3VTU was used as a template to perform molecular replacement by Phaser module to obtain the initial phase information, and then final refinement was performed by PHENIX and COOT.

Assay [5] concerns LC3B mutants K8A, K30A, K39A, K42A, K51A, K65A, K103A, K122A. Kind of assay: Protein thermal shift assay on lysine-to-alanine mutants other than K49A. In kind it is binding, human. The following applies: all lysine-to-alanine mutants except K49A; protein 4 μM, compound 40 μM. As for the experimental part: as §2, §3
For assay [6], the system named is Hela cells. Briefly: Immunofluorescence staining of autophagosomes in Hela cells. In kind it is cell-based. As to conditions: 30 μM or 100 μM for 12 h, then serum-free starvation 24 hours; compared with control group. As for the experimental part: For further investigating the effects of compounds on cell autophagosomes, Hela cells were seeded onto glass coverslips in 6-well plate and cultured until the cells being in good conditions, which were treated with 30 μM or 100 μM of Compound B for 12 h, then replaced to a serum-free medium and starved for 24 hours. The cells were pre-cooled for 10 minutes, then punched with 0.2% Triton X-100 and stood at room temperature for 10 minutes. Next, the cells were blocked with PBS containing 2.5% BSA and incubated overnight with a 4 degree anti-LC3B primary antibody, after which the primary antibody was recognized with a fluorescent secondary antibody, the nuclei were stained with DAPI and photographed under a microscope.

The target in assay [7] is T3, LC3B (1-125). Kind of assay: Mass spectrometry of LC3B incubated with compound. As to conditions: trypsin digest, b and y type ions. As for the experimental part: For further verifying the covalent binding, LC3B (1-125) (SEQ ID NO: 3) protein was separately incubated with compounds B, C and D for mass spectrometry.
After incubating the compound and protein for a given period of time, the product was separated by gel electrophoresis, and the protein having an appropriate size was digested by trypsin. The resulting polypeptide was dissolved and loaded onto a C18 reverse-phase column coupled to an EASY-nLC 1000 system. The polypeptide was eluted to perform mass spectrometry and Mascot search.

By IC50 is commonly meant the concentration that gives 50% inhibition. With “2-((Dimethyl amino)methyl- ene)-5-(tlhio- phen-2-yl)cyclo- hexane-1,3- dione [Compound A]”, the midpoint of inhibition in assay [1] (Table 1, 25° C.), the IC50, lay at 1.56 µM. For the same compound, the “site selectivity for lysine at position 49 in LC3B” value in assay [2] (concluded from thermal shift of the 9 lysine mutants) is on record as “selectively modify the lysine at position 49”. Besides, the “ΔT (melting temperature shift)” value in assay [3] (Table 1) worked out at 10.37 °C. The “covalent linkage in crystal complex” value in assay [4] is “covalently linked to the lysine residue (ε-amino group) at position 49 in LC3B”. The “thermal shift of LC3B mutants” value in assay [5] is given as “significant thermal shift”.
The compound “5-phenyl-2- (((2-(4-(benzoyl) piperazin-1-yl) ethyl)amino) methylene) cyclohexane-1,3- dione [G]” registered an IC50 in assay [1] (Table 1, 25° C.) of 4.83 µM. For the same compound, the “ΔT (melting temperature shift)” value in assay [3] (Table 1) stood at 9.83 °C.
Consider `Cc1ccc(NC(=O)CN2CCN(CCNCC3C(=O)CC(c4ccc(C)cc4)CC3=O)CC2)cc1` (stereo not drawn) [Compound B], for which the “cell autophagosomes (anti-LC3B immunofluorescence)” value in assay [6] was “cell autophagosomes accumulated”.
The compound `NC=C1C(=O)CC(c2ccccc2)CC1=O` (stereo not drawn) [Compound C, 2-(aminomethyl-ene)-5-phenyl-cyclohexane-1,3-dione] registered an IC50 in assay [1] (Table 1, 25° C.) of 28.8 µM. For the same compound, in assay [3] (Table 1), the “ΔT (melting temperature shift)” value was 2.87 °C. In assay [7], the “covalent modification of LC3B by mass spectrometry” value is on record as “covalently modified the lysine at position 49 in LC3B”.
The compound `COc1ccc(C2CC(=O)C(=CN(C)C)C(=O)C2)cc1` (stereo not drawn) [Compound D, 2-((Dimethylamino)methyl-ene)-5-(4-methoxyphenyl) cyclohexane-1,3-dione] registered an IC50 in assay [1] (Table 1, 25° C.) of 1.46 µM. In assay [3] (Table 1), the “ΔT (melting temperature shift)” value was 10.82 °C. Moreover, the “covalent modification of LC3B by mass spectrometry” value in assay [7] is “covalently modified the lysine at position 49 in LC3B”.
With `O=C1CC(c2cccc3[nH]ccc23)CC(=O)C1=CO` (stereo not drawn) [Compound I, 2-(hydroxy-methylene)-5-(1H-indol-4-yl)cyclohexane-1,3-dione], the IC50 in assay [1] (Table 1, 25° C.) was 0.51 µM. In assay [3] (Table 1), the “ΔT (melting temperature shift)” value stood at 13.4 °C. Besides, the “covalent linkage in crystal complex” value in assay [4] is recorded as “covalently linked to the lysine residue (ε-amino group) at position 49 in LC3B”.
Regarding `Cc1ccc(NC(=O)CN2CCN(CCNC=C3C(=O)CC(c4ccccc4)CC3=O)CC2)cc1` (stereo not drawn) [E], the IC50 in assay [1] (Table 1, 25° C.) came out at 5 µM. Moreover, in assay [3] (Table 1), the “ΔT (melting temperature shift)” value stood at 10.21 °C.
Regarding `CCNC(=S)N1CCN(CCNC=C2C(=O)CC(c3ccccc3)CC2=O)CC1` (stereo not drawn) [F, 5-phenyl-2-(((2-(4-(ethyl-aminothiocarbonyl)piperazin-1-yl)ethyl)amino)methylene) cyclohexane-1,3-dione], the IC50 in assay [1] (Table 1, 25° C.) worked out at 6.54 µM.
In turn, `Cc1ccc(C2CC(=O)C(=CNCCN3CCN(C(=O)C(C)C)CC3)C(=O)C2)cc1` (stereo not drawn) [H] showed a concentration for half-maximal inhibition (IC50) in assay [1] (Table 1, 25° C.) of 5 µM. This IC50 and that of the compound before are within 1.5-fold of each other.
The compound `CC1=CCC(C(=O)O)C(C(=O)Nc2ccc(-c3nc4ccc(C)cc4s3)cc2)C1` (stereo not drawn) [compound 1, reference compound] came in with an IC50 in assay [1] (Table 2, comparative compounds) of 46 µM. In assay [3] (Table 2, comparative compounds), the “ΔT (melting temperature shift)” value stood at 0 °C.
On the same counts, the results for `Cc1ccc(C(=O)O)c(C(=O)Nc2ccc(-c3nc4ccc(C)cc4s3)cc2)c1` [compound 2, reference compound] are 50 µM and 0 °C.
The like results for `CCOc1c(I)cc(/C=N\Nc2ccc(C(=O)O)cc2)cc1OC` [compound 3, reference compound] were, in that order, 28 µM and 2.1 °C.
For `Cc1cc(NS(=O)(=O)c2ccc(NC(=O)c3ccc(C(=O)Nc4ccc(S(=O)(=O)Nc5cc(C)on5)cc4)cc3)cc2)no1` [compound 4, reference compound], in assay [1] (Table 2, comparative compounds), it took 28 µM to reach half-maximal inhibition (IC50). Also, the “ΔT (melting temperature shift)” value in assay [3] (Table 2, comparative compounds) is 1.8 °C.
The compound `Cc1ccc2c(C)c(C(=O)Nc3ccc(S(=O)(=O)Nc4onc(C)c4C)cc3)oc2c1` [compound 6, reference compound] came in with an IC50 in assay [1] (Table 2, comparative compounds) of 47 µM. Further, in assay [3] (Table 2, comparative compounds), the “ΔT (melting temperature shift)” value was found to be 0 °C.
On to “LBP2: positive control polypeptide, LBP2 (SEQ ID NO: 6) (GGDDDWTHLSSKEVD; LBP2) [reference compound]”, for which the “thermal shift of LC3B K49A mutant” value in assay [2] (K49A mutant, protein 4 μM, compound 40 μM) is reported as “significant heat shift”. The “thermal shift of LC3B mutants” value in assay [5] is recorded as “significant heat shift”.
